# Results: patent publication US20240158418A1 (C4 Therapeutics, Inc., priority 2021, published 2024)
# Entries after “also recorded” stand apart in the source; their conditions may differ.
# Legend:
# [1] = biological target: T1, EGFR L858R (Homo sapiens, UniProt P00533, L858R); experiment: Western blot NCI-H3255, Compound 1 with or without osimertinib: EGFR-L858R; assay type: cell-based; conditions: NCI-H3255, six hours, 0-1,500 nM, presence and absence of 1,500 nM osimertinib
# Excerpt: (§1) The compound bearing solutions were formulated to achieve a 0.1% final concentration of DMSO. […] Antibodies used in western blot were purchased from the following vendors: EGFR-L858R specific antibody (CST 3197), pY1068 EGFR (CST 2234), pERK (CST 4370), ERK (CST 4695), vinculin (Millipore 05-386).
# [2] = tested on: intracranial NCI-H1975-luciferase expressing NSCLC tumors; experiment: NCI-H1975-luc intracranial tumor model (intracranial injection into forebrain); assay type: in vivo, female BALB/c nude mice; conditions: 100 mg/kg/day PO BID
# Description: Compound 1 efficacy in a NCI-H1975-luciferase expressing intracranial tumor model established by injecting tumor cells intracranially into the mouse forebrain was evaluated at […]: 100 mg/kg/day. Compound 1 was administered BID (twice a day) orally (PO). Eight mice were used per group.
# 2×10^5 luciferase-expressing NCI-H1975-luc tumor cells suspended in 2 μL RPMI-1640 media were injected into the right forebrain of female BALB/c nude mice. Tumor growth was monitored using imaging analysis. Mice were injected intraperitoneally with 15 mg/mL of D-luciferin and anesthetized with 1-2% isoflurane inhalation. 10 minutes post luciferin injection, mice were imaged using IVIS Lumina III (Perkin Elmer) and total bioluminescence signal (BLI, photons/s) was measured in a region of interest (ROI). BLI from ROI were quantified and used as an indicator of tumor burden. 7 days post tumor cell inoculation mice were randomized into groups of 8 with a mean BLI of 27×10^6 photons/s. All agents were administered to mice bearing NCI-H1975-luc brain tumors on day 8. […] Body weight and MTV were measured on a 2× weekly schedule. Statistical analysis was calculated using the Mann-Whitney U test. Data are expressed as bioluminescent signal (photons/s).
# [3] = biological target: T2, mutant EGFR-L858R-T790M (Homo sapiens, UniProt P00533, L858R/T790M); experiment: Mutant EGFR protein in NCI-H1975 tumors after single oral dose (western blot); assay type: in vivo, female BALB/c nude mice
# T2 construct: female BALB/c nude mice bearing NCI-H1975 NSCLC tumors; from tissue; host or cells: NCI-H1975 subcutaneous xenograft tumours from female BALB/c nude mice
# Description: (§2) Compound 1 was administered as a single oral (PO) dose at 10, 25, or 50 mg/kg to female BALB/c nude mice with NCI-H1975 tumors. At 4h, 6h or 12h tumors were harvested and the protein expression of mutant EGFR-L858R and phospho-EGFR was measured by western blot.
# (§3) A xenograft study was conducted in female BALB/c nude mice bearing NCI-H1975 NSCLC tumors. Female nude mice were inoculated subcutaneously in the right flank with 5×10^6 tumors cells in 0.1 mL of PBS. Tumor volume was measured twice weekly in two dimensions using calipers, and volume (mm^3) was calculated using the formula: V=0.5 a×b2 where a and b are the long and short diameters of the tumor in mm, respectively. […]
# (§4) All agents were administered to mice bearing NCI-H1975 tumors on day 0 as a single oral (PO) dose. […] Protein concentration was quantified using a Pierce™ BCA Protein Assay Kit, samples were reduced, and equal protein amounts were then loaded onto a western blot gel for analysis. Tumors were analyzed for EGFR Receptor L858R Mutant Specific (CST, 3197) or Phospho-EGFR Receptor Tyr1068 (CST, 2234) expression. The intensity of individual bands was measured for data analysis using Image Studio software. Protein expression was quantitated in relation to the reference protein, alpha-tubulin, to control for total protein concentration. […]
# [4] = biological target: T1, EGFR L858R; experiment: Differential scanning fluorimetry (DSF); assay type: binding; conditions: EGFR (L858R) 10 μM, compound 100 μM, vs apo protein +DMSO TM = 45.4° C.
# Description: The protein was incubated at 10 μM in buffer (100 mM HEPES pH 7.5 and 150 mM NaCl) with DMSO to determine the stability of the protein alone. In addition, the protein (10 μM) was incubated with each compound (100 μM) individually, or in combination, for 30 min on ice. Protein stability was measured in the presence of 4×SYPRO™ Orange dye (Thermo Fisher) using a ViiA7 Real-Time PCR System (Thermo Fisher) adapted for thermal melts. Reactions of 20 μL were run in quadruplicate using Microamp Optical 384-well reaction plates (Applied Biosystems). Temperature was increased by 0.5° C. intervals from 25° C. to 99° C. and fluorescence intensity was measured. In-house curve fitting analysis software was used to calculate the thermal melting point (TM) of the protein in each reaction.
# [5] = biological target: T3, pY1068 EGFR (Homo sapiens, UniProt P00533, L858R); experiment: Western blot NCI-H3255, Compound 1 with or without osimertinib: phospho-EGFR; assay type: cell-based; conditions: NCI-H3255, six hours, 0-1,500 nM, presence and absence of 1,500 nM osimertinib
# T3 construct: NCI-H3255 (harboring EGFR heterozygous L858R mutation); host or cells: NCI-H3255
# Excerpt: as §1
# [6] = biological target: T4, Phospho-EGFR Receptor Tyr1068 (Homo sapiens, UniProt P00533, L858R/T790M); experiment: Phospho-EGFR in NCI-H1975 tumors after single oral dose (western blot); assay type: in vivo, female BALB/c nude mice
# T4 construct: female BALB/c nude mice bearing NCI-H1975 NSCLC tumors; from tissue; host or cells: NCI-H1975 subcutaneous xenograft tumours from female BALB/c nude mice
# Description: as §2, §3, §4
# [7] = after a single oral dose, NCI-H1975 tumors
# [8] = single PO dose 10, 25 or 50 mg/kg, 4, 6 and 12 hours
smiles,measurement,setting,value
"O=C1CC[C@H](Nc2ccc(N3CCC(O)(CC(=O)N4CC5(C4)CN(c4ccc(-c6cc(F)c7c(c6)C(=O)N(C(C(=O)Nc6nccs6)c6ncn8c6CCC8)C7)cc4)C5)CC3)c(F)c2)C(=O)N1 (stereo partly drawn) [Compound 1, 2-(6,7-dihydro-5H-pyrrolo[1,2-c]imidazol-1-yl)-2-[6-[4-[2-[2-[1-[4-[[(3S)-2,6-dioxo-3-piperidyl]amino]-2-fluoro-phenyl]-4-hydroxy-4-piperidyl]acetyl]-2,6-diazaspiro[3.3]heptan-6-yl]phenyl]-4-fluoro-1-oxo-isoindolin-2-yl]-N-thiazol-2-yl-acetamide]",EGFR-L858R degradation (western blot),[1],efficiently degraded
same,Statistical Significance Compared to Vehicle,[2]; NCI-H1975-luc cells intracranial,0.001
same,efficacy on NCI-H1975-luc BLI (tumor burden),"[2]; intracranial forebrain model, 100 mg/kg/day",reduced tumor volume; also recorded: tumor regression
same,mutant EGFR degraded in vivo,[3]; [7],up to 85%
same,mutant EGFR-L858R protein expression in tumors,[3]; [8],potent EGFR degradation
same,ΔTm at 100 µM,[4],5.8 °C
same,phospho-EGFR inhibition (western blot),[5],inhibited
same,phospho-EGFR decrease in vivo,[6]; [7],> 95%
same,phospho-EGFR protein expression in tumors,[6]; [8],phospho-EGFR inhibition
